Experimental data as given in the kinase profiling compilation of Christmann-Franck et al. (2016).

How the values were obtained:
Experiment in all cases: radiometric filter-binding kinase assay
[1] = biological target: ABL1 (human) (UniProt P00519); conditions: compound 100.0 µM; ATP 5 µM
[2] = system: AKT2 (human), P31751 [S474D]; conditions: compound 100.0 µM; ATP 50 µM
[3] = biological target: AURKA (human) (UniProt O14965); conditions: compound 100.0 µM; ATP 5 µM
[4] = biological target: AURKB (human) (UniProt Q96GD4); conditions: compound 100.0 µM; ATP 20 µM
[5] = biological target: BRSK1 (human) (UniProt Q8TDC3); conditions: compound 100.0 µM; ATP 20 µM
[6] = biological target: CHEK1 (human) (UniProt O14757); conditions: compound 100.0 µM; ATP 20 µM
[7] = biological target: CHEK2 (human) (UniProt O96017); conditions: compound 100.0 µM; ATP 20 µM
[8] = biological target: CSNK2A1 (human) (UniProt P68400); conditions: compound 100.0 µM; ATP 5 µM
[9] = biological target: DYRK2 (human) (UniProt Q92630); conditions: compound 100.0 µM; ATP 50 µM
[10] = biological target: FGFR1 (human) (UniProt P11362); conditions: compound 100.0 µM; ATP 20 µM
Chain of FGFR1 (human) (P11362 whole entry, looked up): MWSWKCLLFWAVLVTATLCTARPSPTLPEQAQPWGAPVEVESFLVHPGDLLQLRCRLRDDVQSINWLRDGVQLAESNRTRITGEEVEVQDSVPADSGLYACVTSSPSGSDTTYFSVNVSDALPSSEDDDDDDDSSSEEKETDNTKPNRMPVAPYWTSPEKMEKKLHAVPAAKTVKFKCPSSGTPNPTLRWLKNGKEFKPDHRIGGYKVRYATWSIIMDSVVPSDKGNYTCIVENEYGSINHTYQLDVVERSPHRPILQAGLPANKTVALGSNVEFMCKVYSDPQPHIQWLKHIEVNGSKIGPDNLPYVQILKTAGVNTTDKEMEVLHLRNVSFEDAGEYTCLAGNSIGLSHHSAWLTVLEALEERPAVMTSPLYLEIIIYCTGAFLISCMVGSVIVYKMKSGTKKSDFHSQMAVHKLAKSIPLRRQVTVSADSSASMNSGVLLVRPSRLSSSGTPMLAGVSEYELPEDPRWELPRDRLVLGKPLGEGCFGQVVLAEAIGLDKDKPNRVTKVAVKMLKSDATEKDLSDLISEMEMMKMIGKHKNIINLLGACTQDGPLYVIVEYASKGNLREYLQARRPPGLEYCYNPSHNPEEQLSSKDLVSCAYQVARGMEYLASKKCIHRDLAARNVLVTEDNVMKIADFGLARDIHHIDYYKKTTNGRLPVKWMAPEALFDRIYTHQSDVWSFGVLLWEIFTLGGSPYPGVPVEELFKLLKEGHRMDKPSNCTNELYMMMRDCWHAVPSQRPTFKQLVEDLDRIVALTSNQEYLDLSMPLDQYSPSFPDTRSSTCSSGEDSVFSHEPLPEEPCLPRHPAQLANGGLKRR

[11] = biological target: FLT1 (human) (UniProt P17948); conditions: compound 100.0 µM; ATP 20 µM
[12] = biological target: GCK (human) (UniProt Q12851); conditions: compound 100.0 µM; ATP 20 µM
[13] = biological target: IRAK4 (human) (UniProt Q9NWZ3); conditions: compound 100.0 µM; ATP 20 µM
[14] = biological target: JAK2 JH1 JH2 (human) (UniProt O60674); conditions: compound 100.0 µM; ATP 5 µM
[15] = biological target: MAP2K1 (human) (UniProt Q02750); conditions: compound 100.0 µM; ATP 5 µM
[16] = biological target: MAP2K2 (human) (UniProt P36507); conditions: compound 100.0 µM; ATP 5 µM
[17] = biological target: MAP3K9 (human) (UniProt P80192); conditions: compound 100.0 µM; ATP 20 µM
Chain of MAP3K9 (human) (P80192 whole entry, looked up): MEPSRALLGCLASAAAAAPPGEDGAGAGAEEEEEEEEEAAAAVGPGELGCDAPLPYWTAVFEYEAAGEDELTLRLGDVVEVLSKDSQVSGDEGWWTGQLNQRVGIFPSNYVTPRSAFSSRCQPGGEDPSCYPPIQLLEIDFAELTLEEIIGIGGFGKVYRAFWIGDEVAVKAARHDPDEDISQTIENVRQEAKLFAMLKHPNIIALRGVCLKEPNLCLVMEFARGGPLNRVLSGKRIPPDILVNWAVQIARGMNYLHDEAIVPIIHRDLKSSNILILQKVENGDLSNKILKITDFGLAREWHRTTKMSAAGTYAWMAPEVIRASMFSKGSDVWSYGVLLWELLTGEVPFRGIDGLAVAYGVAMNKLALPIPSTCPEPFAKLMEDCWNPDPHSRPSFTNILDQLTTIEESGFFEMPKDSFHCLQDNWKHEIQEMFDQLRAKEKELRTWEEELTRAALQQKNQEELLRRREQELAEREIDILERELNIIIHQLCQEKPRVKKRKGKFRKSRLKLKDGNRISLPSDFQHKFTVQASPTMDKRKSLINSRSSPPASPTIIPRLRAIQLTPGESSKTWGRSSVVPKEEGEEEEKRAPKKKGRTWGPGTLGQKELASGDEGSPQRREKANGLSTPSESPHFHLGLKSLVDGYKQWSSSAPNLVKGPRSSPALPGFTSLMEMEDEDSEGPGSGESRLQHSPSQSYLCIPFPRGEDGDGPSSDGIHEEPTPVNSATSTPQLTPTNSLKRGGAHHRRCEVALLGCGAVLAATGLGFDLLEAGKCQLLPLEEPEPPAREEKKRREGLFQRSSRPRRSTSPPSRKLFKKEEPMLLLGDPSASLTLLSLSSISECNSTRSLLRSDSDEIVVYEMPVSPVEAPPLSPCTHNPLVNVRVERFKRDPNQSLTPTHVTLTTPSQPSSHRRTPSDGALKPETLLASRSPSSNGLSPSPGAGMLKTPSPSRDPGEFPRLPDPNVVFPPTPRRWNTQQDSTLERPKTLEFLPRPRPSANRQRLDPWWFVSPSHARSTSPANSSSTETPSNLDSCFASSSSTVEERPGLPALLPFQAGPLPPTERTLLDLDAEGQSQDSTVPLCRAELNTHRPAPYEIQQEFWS

[18] = biological target: MAPK13 (human) (UniProt O15264); conditions: compound 100.0 µM; ATP 5 µM
[19] = biological target: MAPK14 (human) (UniProt Q16539); conditions: compound 100.0 µM; ATP 50 µM
[20] = biological target: MAPK15 (human) (UniProt Q8TD08); conditions: compound 100.0 µM; ATP 5 µM
[21] = biological target: MAPK3 (human) (UniProt P27361); conditions: compound 100.0 µM; ATP 5 µM
Chain of MAPK3 (human) (P27361 whole entry, looked up): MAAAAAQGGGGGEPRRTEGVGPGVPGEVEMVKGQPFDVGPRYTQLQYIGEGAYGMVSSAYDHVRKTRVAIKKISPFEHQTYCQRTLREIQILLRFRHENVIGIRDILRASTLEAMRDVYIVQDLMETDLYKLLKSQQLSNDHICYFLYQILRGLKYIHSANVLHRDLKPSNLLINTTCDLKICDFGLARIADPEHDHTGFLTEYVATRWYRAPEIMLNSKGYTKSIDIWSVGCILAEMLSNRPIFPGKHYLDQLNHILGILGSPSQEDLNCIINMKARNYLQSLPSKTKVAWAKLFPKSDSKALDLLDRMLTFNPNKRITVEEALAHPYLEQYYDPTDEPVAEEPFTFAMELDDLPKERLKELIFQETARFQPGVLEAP

[22] = biological target: MAPK9 (human) (UniProt P45984); conditions: compound 100.0 µM; ATP 20 µM
[23] = biological target: MAPKAPK3 (human) (UniProt Q16644); conditions: compound 100.0 µM; ATP 20 µM
[24] = biological target: MARK1 (human) (UniProt Q9P0L2); conditions: compound 100.0 µM; ATP 20 µM
[25] = biological target: MARK4 (human) (UniProt Q96L34); conditions: compound 100.0 µM; ATP 50 µM
Chain of MARK4 (human) (Q96L34 whole entry, looked up): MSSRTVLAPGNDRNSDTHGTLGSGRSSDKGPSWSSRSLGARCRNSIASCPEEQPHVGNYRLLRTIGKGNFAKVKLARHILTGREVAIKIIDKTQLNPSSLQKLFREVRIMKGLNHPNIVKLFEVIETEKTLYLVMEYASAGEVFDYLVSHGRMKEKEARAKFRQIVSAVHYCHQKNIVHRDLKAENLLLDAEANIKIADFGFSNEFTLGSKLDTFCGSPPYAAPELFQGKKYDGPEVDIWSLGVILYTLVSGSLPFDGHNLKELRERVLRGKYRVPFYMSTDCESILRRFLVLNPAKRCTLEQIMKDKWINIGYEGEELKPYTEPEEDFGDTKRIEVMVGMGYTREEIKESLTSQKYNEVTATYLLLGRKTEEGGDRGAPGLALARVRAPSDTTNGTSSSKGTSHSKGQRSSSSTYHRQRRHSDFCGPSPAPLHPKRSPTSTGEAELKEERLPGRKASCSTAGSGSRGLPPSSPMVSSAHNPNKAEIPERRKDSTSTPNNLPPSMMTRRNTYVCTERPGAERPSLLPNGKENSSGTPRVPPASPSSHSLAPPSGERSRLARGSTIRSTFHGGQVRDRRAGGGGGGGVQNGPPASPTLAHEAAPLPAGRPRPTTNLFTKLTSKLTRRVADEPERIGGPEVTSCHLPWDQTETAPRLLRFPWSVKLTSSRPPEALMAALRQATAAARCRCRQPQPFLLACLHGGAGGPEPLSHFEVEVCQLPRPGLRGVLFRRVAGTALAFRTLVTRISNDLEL

[26] = biological target: PAK6 (human) (UniProt Q9NQU5); conditions: compound 100.0 µM; ATP 20 µM
Chain of PAK6 (human) (Q9NQU5 whole entry, looked up): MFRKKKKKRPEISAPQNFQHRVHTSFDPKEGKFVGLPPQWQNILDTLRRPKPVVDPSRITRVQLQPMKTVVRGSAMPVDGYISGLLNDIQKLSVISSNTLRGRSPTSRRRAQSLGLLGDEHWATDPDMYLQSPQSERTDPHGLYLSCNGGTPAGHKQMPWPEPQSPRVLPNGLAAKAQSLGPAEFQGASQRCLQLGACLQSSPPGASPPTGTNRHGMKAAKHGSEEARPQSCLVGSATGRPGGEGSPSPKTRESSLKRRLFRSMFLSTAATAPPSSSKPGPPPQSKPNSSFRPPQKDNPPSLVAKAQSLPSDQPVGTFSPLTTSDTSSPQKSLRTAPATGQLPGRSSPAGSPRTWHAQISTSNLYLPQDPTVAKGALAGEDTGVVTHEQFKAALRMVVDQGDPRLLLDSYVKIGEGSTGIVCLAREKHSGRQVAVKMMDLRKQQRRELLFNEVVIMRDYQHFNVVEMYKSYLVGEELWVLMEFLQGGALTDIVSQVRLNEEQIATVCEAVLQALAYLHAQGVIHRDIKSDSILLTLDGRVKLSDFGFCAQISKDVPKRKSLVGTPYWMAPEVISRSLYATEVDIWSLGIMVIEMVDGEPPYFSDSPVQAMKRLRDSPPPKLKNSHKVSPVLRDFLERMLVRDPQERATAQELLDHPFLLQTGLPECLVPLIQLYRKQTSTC

[27] = biological target: PAK7 (human) (UniProt Q9P286); conditions: compound 100.0 µM; ATP 20 µM
[28] = biological target: PDPK1 (human) (UniProt O15530); conditions: compound 100.0 µM
[29] = biological target: PHKG1 (human) (UniProt Q16816); conditions: compound 100.0 µM; ATP 50 µM
[30] = biological target: PIM1 (human) (UniProt P11309); conditions: compound 100.0 µM; ATP 20 µM
[31] = biological target: PIM3 (human) (UniProt Q86V86); conditions: compound 100.0 µM; ATP 20 µM
[32] = biological target: PLK1 (human) (UniProt P53350); conditions: compound 100.0 µM; ATP 5 µM
[33] = biological target: PTK6 (human) (UniProt Q13882); conditions: compound 100.0 µM; ATP 20 µM
[34] = biological target: RIPK2 (human) (UniProt O43353); conditions: compound 100.0 µM; ATP 20 µM
[35] = system: RPS6KB1 (human), P23443 [T412E]; conditions: compound 100.0 µM; ATP 20 µM
Chain of RPS6KB1 (human), P23443 [T412E] (P23443 whole entry T412E, looked up): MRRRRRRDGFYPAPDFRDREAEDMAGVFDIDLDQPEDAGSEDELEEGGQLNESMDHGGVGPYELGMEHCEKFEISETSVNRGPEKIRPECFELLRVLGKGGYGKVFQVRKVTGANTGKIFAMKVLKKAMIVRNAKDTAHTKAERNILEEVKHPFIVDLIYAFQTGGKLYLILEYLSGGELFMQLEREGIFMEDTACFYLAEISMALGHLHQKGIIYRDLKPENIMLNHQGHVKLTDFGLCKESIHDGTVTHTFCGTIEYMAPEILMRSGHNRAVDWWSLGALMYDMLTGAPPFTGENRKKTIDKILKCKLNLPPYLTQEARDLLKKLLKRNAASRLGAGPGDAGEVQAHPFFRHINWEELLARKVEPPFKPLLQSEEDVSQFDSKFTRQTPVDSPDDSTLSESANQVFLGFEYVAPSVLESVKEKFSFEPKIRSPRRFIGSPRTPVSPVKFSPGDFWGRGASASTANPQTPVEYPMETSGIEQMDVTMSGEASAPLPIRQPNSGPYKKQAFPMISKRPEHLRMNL

[36] = system: SGK1 (human), O00141 [S422D]; conditions: compound 100.0 µM; ATP 20 µM
Chain of SGK1 (human), O00141 [S422D] (O00141 whole entry S422D, looked up): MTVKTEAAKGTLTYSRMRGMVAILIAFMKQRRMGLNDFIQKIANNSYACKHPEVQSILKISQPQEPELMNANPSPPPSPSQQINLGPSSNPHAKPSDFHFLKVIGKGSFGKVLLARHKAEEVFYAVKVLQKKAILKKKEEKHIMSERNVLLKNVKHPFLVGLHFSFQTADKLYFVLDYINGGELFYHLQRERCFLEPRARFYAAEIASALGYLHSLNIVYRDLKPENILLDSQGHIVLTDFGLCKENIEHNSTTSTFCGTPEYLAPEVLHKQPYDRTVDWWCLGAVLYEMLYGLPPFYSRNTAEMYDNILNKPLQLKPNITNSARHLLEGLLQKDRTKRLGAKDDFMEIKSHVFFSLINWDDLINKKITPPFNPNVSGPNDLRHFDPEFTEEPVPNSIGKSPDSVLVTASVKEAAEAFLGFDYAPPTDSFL

[37] = biological target: SRPK1 (human) (UniProt Q96SB4); conditions: compound 100.0 µM; ATP 50 µM
[38] = biological target: STK16 (human) (UniProt O75716); conditions: compound 100.0 µM; ATP 50 µM
Chain of STK16 (human) (O75716 whole entry, looked up): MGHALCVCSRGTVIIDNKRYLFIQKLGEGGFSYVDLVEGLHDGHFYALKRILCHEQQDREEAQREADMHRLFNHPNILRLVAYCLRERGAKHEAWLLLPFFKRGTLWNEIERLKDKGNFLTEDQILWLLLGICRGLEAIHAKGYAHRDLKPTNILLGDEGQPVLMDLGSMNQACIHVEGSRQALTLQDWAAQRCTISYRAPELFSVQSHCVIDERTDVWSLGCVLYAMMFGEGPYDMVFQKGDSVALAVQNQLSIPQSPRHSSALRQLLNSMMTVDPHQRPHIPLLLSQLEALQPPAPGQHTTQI

[39] = biological target: TBK1 (human) (UniProt Q9UHD2); conditions: compound 100.0 µM; ATP 50 µM
[40] = biological target: TTK (human) (UniProt P33981); conditions: compound 100.0 µM; ATP 20 µM

O=c1cc(-c2ccccc2F)nc2[nH]ccn12 showed an inhibition [1] of 3%, an inhibition [2] of 16% and an inhibition [3] of 17%. For the same compound, the inhibition [4] was 0%, the inhibition [5] was 44% and the inhibition [6] was 4%. For the same compound, the inhibition [7] was 19%, the inhibition [8] was 20% and the inhibition [9] was 37%. For the same compound, the inhibition [10] was 41%, the inhibition [11] was 39% and the inhibition [12] was 29%. The inhibition [13] was 40%, the inhibition [14] was 25% and the inhibition [15] was 43%. It also gave an inhibition [16] of 18%, an inhibition [17] of 0% and an inhibition [18] of 0%. The inhibition [19] was 21%, the inhibition [20] was 18% and the inhibition [21] was 3%. For the same compound, the inhibition [22] was 10%, the inhibition [23] was 15% and the inhibition [24] was 5%. It also gave an inhibition [25] of 0%, an inhibition [26] of 3% and an inhibition [27] of 0%. It also gave an inhibition ([28]; ATP 20 µM) of 2%, an inhibition ([28]; ATP 50 µM) of 15% and an inhibition [29] of 8%. It also gave an inhibition [30] of 67%, an inhibition [31] of 83% and an inhibition [32] of 8%. It also gave an inhibition [33] of 30%, an inhibition [34] of 57% and an inhibition [35] of 8%. For the same compound, the inhibition [36] was 18%, the inhibition [37] was 0% and the inhibition [38] was 15%. It also gave an inhibition [39] of 6% and an inhibition [40] of 11%.
Compound O=C(c1cccc(-c2cc3c(=O)[nH]cnc3s2)c1)N1CCOCC1 has an inhibition [1] of 15%, an inhibition [2] of 47% and an inhibition [3] of 21%. The inhibition [4] was 6%, the inhibition [5] was 38% and the inhibition [6] was 0%. It also gave an inhibition [7] of 34%, an inhibition [8] of 41% and an inhibition [9] of 53%. It also gave an inhibition [10] of 57%, an inhibition [11] of 74% and an inhibition [12] of 7%. The inhibition [13] was 28%, the inhibition [14] was 75% and the inhibition [15] was 31%. The inhibition [16] was 8%, the inhibition [17] was 0% and the inhibition [18] was 0%. For the same compound, the inhibition [19] was 0%, the inhibition [20] was 72% and the inhibition [21] was 19%. It also gave an inhibition [22] of 0%, an inhibition [23] of 61% and an inhibition [24] of 31%. For the same compound, the inhibition [25] was 0%, the inhibition [26] was 0% and the inhibition [27] was 0%. For the same compound, the inhibition ([28]; ATP 20 µM) was 16%, the inhibition ([28]; ATP 50 µM) was 53% and the inhibition [29] was 9%. It also gave an inhibition [30] of 61%, an inhibition [31] of 51% and an inhibition [32] of 0%. For the same compound, the inhibition [33] was 50%, the inhibition [34] was 12% and the inhibition [35] was 34%. The inhibition [36] was 14%, the inhibition [37] was 19% and the inhibition [38] was 4%. The inhibition [39] was 17% and the inhibition [40] was 0%.
Nc1nc2cnc(-c3ccccc3)cn2n1 gave an inhibition [1] of 72%, an inhibition [2] of 32% and an inhibition [3] of 52%. It also gave an inhibition [4] of 76%, an inhibition [5] of 27% and an inhibition [6] of 45%. For the same compound, the inhibition [7] was 81%, the inhibition [8] was 55% and the inhibition [9] was 63%. It also gave an inhibition [10] of 79%, an inhibition [11] of 82% and an inhibition [12] of 93%. It also gave an inhibition [13] of 80%, an inhibition [14] of 76% and an inhibition [15] of 37%. The inhibition [16] was 35%, the inhibition [17] was 81% and the inhibition [18] was 18%. It also gave an inhibition [19] of 27%, an inhibition [20] of 74% and an inhibition [21] of 31%. For the same compound, the inhibition [22] was 26%, the inhibition [23] was 40% and the inhibition [24] was 0%. It also gave an inhibition [25] of 44%, an inhibition [26] of 36% and an inhibition [27] of 79%. It also gave an inhibition ([28]; ATP 20 µM) of 35%, an inhibition ([28]; ATP 50 µM) of 6% and an inhibition [29] of 83%. The inhibition [30] was 30%, the inhibition [31] was 55% and the inhibition [32] was 18%. It also gave an inhibition [33] of 53%, an inhibition [34] of 56% and an inhibition [35] of 9%. It also gave an inhibition [36] of 34%, an inhibition [37] of 41% and an inhibition [38] of 7%. It also gave an inhibition [39] of 72% and an inhibition [40] of 34%.
